Calls of active or inactive are those of the source. The calls are words filed in the database; no cut-off is given here.
Columns and labels:
[1] = system: Mus musculus; experiment: Antidiabetic activity in streptozotocin-induced diabetic ICR mouse assessed as change in body weight at 10 mg/kg, po administered QD measured 1 week after STZ challenge (reference value: 33.25 +/- 0.75 g); type: functional
[2] = system: Mus musculus; experiment: Antidiabetic activity in streptozotocin-induced diabetic ICR mouse assessed as change in body weight at 10 mg/kg, po administered QD measured 9 weeks after STZ challenge (reference value: 34.15 +/- 1.16 g); type: functional
[3] = system: Mus musculus; experiment: Antidiabetic activity in streptozotocin-induced diabetic ICR mouse assessed as change in body weight at 20 mg/kg, po administered QD measured 1 week after STZ challenge (reference value: 33.25 +/- 0.75 g); type: functional
[4] = system: Mus musculus; experiment: Antidiabetic activity in streptozotocin-induced diabetic ICR mouse assessed as change in body weight at 20 mg/kg, po administered QD measured 9 weeks after STZ challenge (reference value: 34.15 +/- 1.16 g); type: functional
[5] = system: Mus musculus; experiment: Antidiabetic activity in streptozotocin-induced diabetic ICR mouse assessed as change in blood glucose level at 10 mg/kg, po administered QD measured 1 week after STZ challenge (reference value: 516.33 +/- 46.73 mg/dl); type: functional
[6] = system: Mus musculus; experiment: Antidiabetic activity in streptozotocin-induced diabetic ICR mouse assessed as change in blood glucose level at 10 mg/kg, po administered QD measured 9 weeks after STZ challenge (reference value: 529.90 +/- 49.17 mg/dl); type: functional
[7] = system: Mus musculus; experiment: Antidiabetic activity in streptozotocin-induced diabetic ICR mouse assessed as change in blood glucose level at 20 mg/kg, po administered QD measured 1 week after STZ challenge (reference value: 516.33 +/- 46.73 mg/dl); type: functional
[8] = system: Mus musculus; experiment: Antidiabetic activity in streptozotocin-induced diabetic ICR mouse assessed as change in blood glucose level at 20 mg/kg, po administered QD measured 9 weeks after STZ challenge (reference value: 529.90 +/- 49.17 mg/dl); type: functional
[9] = system: Mus musculus; experiment: Protective activity against hearing loss in streptozotocin-induced diabetic ICR mouse using 4 KHz tone bursts at 10 mg/kg, po administered QD measured after 8 weeks by auditory brainstem response test; type: functional, organism-based; design: dose 10 mg/kg
[10] = system: Mus musculus; experiment: Protective activity against hearing loss in streptozotocin-induced diabetic ICR mouse using 8 KHz tone bursts at 10 mg/kg, po administered QD measured after 8 weeks by auditory brainstem response test; type: functional, organism-based; design: dose 10 mg/kg
[11] = system: Mus musculus; experiment: Protective activity against hearing loss in streptozotocin-induced diabetic ICR mouse using 4 KHz tone bursts at 20 mg/kg, po administered QD measured after 8 weeks by auditory brainstem response test; type: functional, organism-based; design: dose 20 mg/kg
[12] = system: Mus musculus; experiment: Protective activity against hearing loss in streptozotocin-induced diabetic ICR mouse using 8 KHz tone bursts at 20 mg/kg, po administered QD measured after 8 weeks by auditory brainstem response test; type: functional, organism-based; design: dose 20 mg/kg
[13] = system: Mus musculus; experiment: Protective activity against hearing loss in streptozotocin-induced diabetic ICR mouse assessed as decrease in positive A peak latency at 10 mg/kg, po administered QD measured after 8 weeks by auditory middle latency response test; type: functional, organism-based; design: dose 10 mg/kg
[14] = system: Mus musculus; experiment: Protective activity against hearing loss in streptozotocin-induced diabetic ICR mouse assessed as decrease in positive A peak latency at 20 mg/kg, po administered QD measured after 8 weeks by auditory middle latency response test; type: functional, organism-based; design: dose 20 mg/kg
[15] = system: Mus musculus; experiment: Protective activity against hearing loss in streptozotocin-induced diabetic ICR mouse assessed as increase in negative A peak-positive A peak amplitude at 10 mg/kg, po administered QD measured after 8 weeks by auditory middle latency response test; type: functional, organism-based; design: dose 10 mg/kg
[16] = system: Mus musculus; experiment: Protective activity against hearing loss in streptozotocin-induced diabetic ICR mouse assessed as increase in negative A peak-positive A peak amplitude at 20 mg/kg, po administered QD measured after 8 weeks by auditory middle latency response test; type: functional, organism-based; design: dose 20 mg/kg
[17] = system: Mus musculus; experiment: Protective activity against hearing loss in streptozotocin-induced diabetic ICR mouse assessed as increase in signal intensity-to-noise ratio at 10 mg/kg, po administered QD measured after 8 weeks by transient evoked otoacoustic emission test; type: functional, organism-based; design: dose 10 mg/kg
[18] = system: Mus musculus; experiment: Protective activity against hearing loss in streptozotocin-induced diabetic ICR mouse assessed as increase in signal intensity-to-noise ratio at 20 mg/kg, po administered QD measured after 8 weeks by transient evoked otoacoustic emission test; type: functional, organism-based; design: dose 20 mg/kg
[19] = Oral bioavailability in rat; type: ADME, organism-based; conditions: in vivo
[20] = Lipophilicity, log P of the compound; type: physicochemical; conditions: octanol/water

logP [20] | SMILES | Activity [1] | Activity [2] | Activity [3] | Activity [4] | Activity [5] | Activity [6] | Activity [7] | Activity [8] | Activity [9] | Activity [10] | Activity [11] | Activity [12] | Activity [13] | Activity [14] | Activity [15] | Activity [16] | Activity [17] | Activity [18] | bioavailability [19]
 | COCCOCCOCCOCCO[C@H]1CC[C@@]2(C)C(=CC[C@H]3[C@@H]4C[C@@H]5O[C@]6(CC[C@@H](C)CO6)[C@@H](C)[C@@H]5[C@@]4(C)CC[C@@H]32)C1 | 30.5 g | 33.72 g | 32.55 g | 37.6 g | 522.18 mg/dL | 565.56 mg/dL | 582.8 mg/dL | 501.6 mg/dL | Active | Active | Active | Active | Active | Active | Active | Active | Active | Active | 
 | C[C@@H]1CC[C@@]2(OC1)O[C@H]1C[C@H]3[C@@H]4CC=C5C[C@@H](O[C@@H]6O[C@H](CO)[C@@H](O[C@@H]7O[C@@H](C)[C@H](O)[C@@H](O)[C@H]7O)[C@H](O)[C@H]6O[C@@H]6O[C@@H](C)[C@H](O)[C@@H](O)[C@H]6O)CC[C@]5(C)[C@H]4CC[C@]3(C)[C@H]1[C@@H]2C [DIOSCIN] |  |  |  |  |  |  |  |  |  |  |  |  |  |  |  |  |  |  | 0.2%
5.7 | C[C@@H]1CC[C@@]2(OC1)O[C@H]1C[C@H]3[C@@H]4CC=C5C[C@@H](O)CC[C@]5(C)[C@H]4CC[C@]3(C)[C@H]1[C@@H]2C [DISOGENIN] | 32.83 g | 38.33 g | 33.67 g | 38.67 g | >=600 mg/dl | >=600 mg/dl | 574.17 mg/dL | 598 mg/dL |  |  |  |  |  |  |  |  |  |  | 
 | C[C@@H]1CC[C@@]2(OC1)O[C@H]1C[C@H]3[C@@H]4CC=C5C[C@@H](O[C@@H]6O[C@H](CO)[C@@H](O)[C@H](O)[C@H]6O)CC[C@]5(C)[C@H]4CC[C@]3(C)[C@H]1[C@@H]2C [DISOGLUSIDE] | 33.17 g | 33.39 g | 31.58 g | 34.92 g | 583.55 mg/dL | >=600 mg/dl | 571.75 mg/dL | 592.33 mg/dL |  |  | Active | Active |  | Active |  | Active |  |  | 
